The source of these data is patent publication US20090042849A1, “Phosphorylation of 5-lipoxygenase at ser523 and uses thereof” (priority 2006, published 2009).

Each structure is given as a SMILES string. Entries after “also recorded” stand apart in the source; their conditions may differ.

What all share (format): cell-based
The test system of assay [1] is cPLA2. The assay can be described thus: immunofluorescence of cPLA2 in adult rat cardiac myocytes. Conditions: PIO 10 μM, ATV 10 μM, H-89 0.1 μM, 12 hours. Here is the method: (§1) Cardiac myocytes were isolated from adult Sprague-Dawley rats (250-300 g, male). Animals were heparinized (1,000-2,000 units i.p.) 5 min before being anesthetized with ketamine (100 mg/kg) and xylazine (10 mg/kg), and the hearts were removed and placed in ice-cold heart media solution (in mmol/l: 112 NaCl, 5.4 KCl, 1 MgCl2, 9 NaH2PO4, and 11.1 D-glucose; supplemented with 10 HEPES, 30 taurine, 2 DL-carnitine, and 2 creatine, pH. 7.4). The hearts were perfused retrogradely in a Langendorff apparatus with Ca^2+-free heart media for 5 min at 5 ml/min at 37° C., followed by perfusion with Ca^2+-free heart media containing collagenase II, 210 U/mg (Worthington, Lakewood, N.J.) for 20 min. After perfusion, both ventricles were removed from the heart and minced in collagenase II-containing heart media for 10-15 min. The cell solution was then washed several times to remove collagenase II and reexposed to 1.2 mM Ca2^+ over 25 min to produce Ca2^+-tolerant cardiac myocytes. […]
(§2) Immunofluorescent labeling was performed on paraffin sections (5-μm) of 4% formaldehyde-fixed rat cardiac tissue, as described previously (22). […] All the slides were viewed under an Olympus BX51 microscope [images recorded by a DP70 Digital camera (Olympus Optical Co., Ltd., Tokyo, Japan)] or confocal microscope (Bio-Rad 2100 (Hercules, Calif.).

The test system of assay [2] is LTB4. Briefly: LTB4 levels in adult rat cardiac myocytes (ELISA). The conditions noted are these: PIO 10 μM, ATV 10 μM, H-89 0.1 μM, 12 hours. The protocol:
as §1, with “myocytes. Myocytes were then plated in 4% FBS on laminin (2 μg/cm^2)-coated plates for 1 h and incubated at 37° C. in 5% CO2 for 12-24 h before experiments (21). Cells were incubated with 1) vehicle (0.07% ethanol); 2) PIO (10 μM)+ATV (10 μM); 3) H-89 (0.1 μM); or 4) PIO+ATV+H-89 for 12 hours. The supernatants were collected directly for LTB4 analyses by ELISA and the cells were harvested for immunoblotting.” for “myocytes.”
(In general: In an ELISA, binding on a coated surface is turned into a signal by an enzyme label.)

Assay [3] has as its system 5LO (P-5LO). Briefly: immunoblotting of 5LO and P-5LO in adult rat cardiac myocyte cultures. Conditions: H-89 0.1 μM with PIO+ATV. The protocol:
as §1, with “min.” for “min. After perfusion, both ventricles were removed from the heart and minced in collagenase II-containing heart media for 10-15 min. The cell solution was then washed several times to remove collagenase II and reexposed to 1.2 mM Ca2^+ over 25 min to produce Ca2^+-tolerant cardiac myocytes.”
The hearts were rapidly explanted, rinsed in cold PBS (pH 7.4), containing 0.16 mg/ml heparin to remove red blood cells and clots, frozen in liquid nitrogen and stored at −70° C. […] The supernatant was collected and the total protein concentration was determined using the Lowry protein assay. […] The protein samples with loading buffer were run in 4-20% Tri-HCl Ready Gel at a 100V for 2 h until the desired molecular weight bands were separated. […] The protein signals were quantified by an image-scanning-densitometer and the strength of each protein signal was normalized to the corresponding b-actin stain signal. Data are expressed as a ratio between the protein and the corresponding b-actin signal density.

Assay [4] relates to COX2. The assay can be described thus: immunofluorescence of COX2 in adult rat cardiac myocytes. Here is the method: as §1, §2

As to `O=S(=O)(NCCNC/C=C/c1ccc(Br)cc1)c1cccc2cnccc12` [H-89], the cPLA2 expression result in assay [1] is “no effect”. Further, the LTB4 levels result in assay [2] was “no significant effect”. Moreover, the “effect on the 5LO phosphorylation by PIO+ATV” value in assay [3] is recorded as “almost completely blocked”. Moreover, in assay [4] (H-89 0.1 μM with PIO+ATV), the “effect on the increased expression of COX2 by PIO+ATV” value is listed as “did not affect; also recorded: no effect”. The COX2 expression entry in assay [4] (PIO 10 μM, ATV 10 μM, H-89 0.1 μM, 12 hours) is “no effect”.
